# Experimental data taken from patent US8614201B2 (Janssen Pharmaceutica NV, priority 2009, dated 2013).
# Target: Human TRPA1 (Homo sapiens, UniProt O75762)
# Experiment: Assay 1: In vitro cellular testing of TRPA1 modulation (CHO-TREx, Fluo-3 calcium fluorescence, AITC agonist)
# Format: cell-based
# Design: expressed in transfected cells; host or cells: CHO-TREx cells (Invitrogen), vector pcDNA4/TO
# Conditions: CHO-TREx cells expressing human TRPA1; Fluo-3 fluorescence (FLIPR/Tetra); agonist 15 μM allyl isothiocyanate (AITC); 30 minute antagonist incubation
# How it was run: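 Antagonist potency is the 50% reduction of the AITC (15 μM) calcium response, Hill-fitted against no-antagonist and 10 μM ruthenium red controls. Fluo-3-loaded (4 μM) CHO-TREx cells with tetracycline-inducible human TRPA1 got compound in HEPES saline pH 7.4 for 30 min, usually from 10 μM in three-fold dilutions.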
# Sequence of Human TRPA1 (O75762 whole entry): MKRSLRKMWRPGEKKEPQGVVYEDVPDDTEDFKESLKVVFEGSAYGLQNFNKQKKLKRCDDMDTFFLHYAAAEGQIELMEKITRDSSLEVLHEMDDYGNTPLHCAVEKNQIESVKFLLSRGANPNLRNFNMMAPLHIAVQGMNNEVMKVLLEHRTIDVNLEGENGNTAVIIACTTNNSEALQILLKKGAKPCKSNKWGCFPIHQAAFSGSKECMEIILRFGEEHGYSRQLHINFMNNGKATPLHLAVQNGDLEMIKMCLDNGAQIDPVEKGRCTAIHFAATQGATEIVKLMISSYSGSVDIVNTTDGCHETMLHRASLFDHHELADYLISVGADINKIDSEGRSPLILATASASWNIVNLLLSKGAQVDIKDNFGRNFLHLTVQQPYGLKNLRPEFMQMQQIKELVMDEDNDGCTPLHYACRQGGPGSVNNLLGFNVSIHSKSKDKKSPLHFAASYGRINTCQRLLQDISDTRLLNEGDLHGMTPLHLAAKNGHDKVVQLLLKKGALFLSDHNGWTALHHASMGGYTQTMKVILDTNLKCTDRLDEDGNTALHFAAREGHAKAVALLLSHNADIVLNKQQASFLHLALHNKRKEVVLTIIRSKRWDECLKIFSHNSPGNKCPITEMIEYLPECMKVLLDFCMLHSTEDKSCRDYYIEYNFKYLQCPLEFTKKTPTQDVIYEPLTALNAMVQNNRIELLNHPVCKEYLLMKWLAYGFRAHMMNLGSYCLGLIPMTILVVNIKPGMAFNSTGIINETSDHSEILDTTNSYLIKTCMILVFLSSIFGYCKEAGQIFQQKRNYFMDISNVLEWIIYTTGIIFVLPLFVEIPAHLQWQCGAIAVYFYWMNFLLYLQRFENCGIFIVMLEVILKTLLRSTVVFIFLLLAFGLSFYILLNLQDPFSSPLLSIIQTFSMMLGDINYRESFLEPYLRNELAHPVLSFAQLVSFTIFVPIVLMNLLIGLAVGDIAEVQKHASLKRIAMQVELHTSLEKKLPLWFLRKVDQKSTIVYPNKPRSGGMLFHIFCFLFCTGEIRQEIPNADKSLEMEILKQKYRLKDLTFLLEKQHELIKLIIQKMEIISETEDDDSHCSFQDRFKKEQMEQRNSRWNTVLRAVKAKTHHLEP
row,Compound,IC50 [nM]
1,"O=C(NCc1cc(-c2ccc(C(F)(F)F)cc2)ccn1)[C@@H]1C=CCN1S(=O)(=O)c1ccc(Cl)s1 [Example 144, 1-(5-Chloro-thiophene-2-sulfonyl)-2,5-dihydro-1H-pyrrole-2S-carboxylic acid [4-(4-trifluoromethyl-phenyl)-pyridin-2-ylmethyl]-amide]",22
2,"O=C(NCc1cc(-c2ccc(OC(F)(F)F)cc2)ccn1)[C@@H]1C=CCN1S(=O)(=O)c1ccc(F)cc1 [Example 145, 1-(4-Fluoro-benzenesulfonyl)-2,5-dihydro-1H-pyrrole-2S-carboxylic acid [4-(4-trifluoromethoxy-phenyl)-pyridin-2-ylmethyl]-amide]",28
3,"O=C(NCc1cc(-c2ccc(OC(F)(F)F)cc2)ccn1)[C@@H]1C=CCN1S(=O)(=O)c1ccc(Cl)s1 [Example 146, 1-(5-Chloro-thiophene-2-sulfonyl)-2,5-dihydro-1H-pyrrole-2S-carboxylic acid [4-(4-trifluoromethoxy-phenyl)-pyridin-2-ylmethyl]-amide]",52
4,"O=C(NCc1cc(-c2ccc(C(F)(F)F)cc2)ncn1)[C@@H]1CCCN1S(=O)(=O)c1ccc(F)c(F)c1 [Example 148, 1-(3,4-Difluorobenzenesulfonyl)-pyrrolidine-2S-carboxylic acid [6-(4-trifluoromethylphenyl)-pyrimidin-4-ylmethyl]-amide]",28
5,"O=C(NCc1cc(-c2ccc(C(F)(F)F)cc2)ncn1)[C@@H]1CCCN1S(=O)(=O)c1ccc(OC(F)(F)F)cc1 [Example 149, 1-(4-Trifluoromethoxybenzenesulfonyl)-pyrrolidine-2S-carboxylic acid [6-(4-trifluoromethylphenyl)-pyrimidin-4-ylmethyl]-amide]",3650
6,"COc1ccc(S(=O)(=O)N2CCC[C@H]2C(=O)NCc2cc(-c3ccc(C(F)(F)F)cc3)ncn2)cc1 [Example 150, 1-(4-Methoxybenzenesulfonyl)-pyrrolidine-2S-carboxylic acid [6-(4-trifluoromethylphenyl)-pyrimidin-4-ylmethyl]-amide]",383
7,"O=C(NCc1cc(-c2ccc(C(F)(F)F)cc2)ncn1)[C@@H]1CCCN1S(=O)(=O)c1cccc(F)c1 [Example 154, 1-(3-Fluorobenzenesulfonyl)-pyrrolidine-2S-carboxylic acid [6-(4-trifluoromethylphenyl)-pyrimidin-4-ylmethyl]-amide]",44
8,"Cc1ccccc1S(=O)(=O)N1CCC[C@H]1C(=O)NCc1cc(-c2ccc(C(F)(F)F)cc2)ncn1 [Example 155, 1-(Toluene-2-sulfonyl)-pyrrolidine-2S-carboxylic acid [6-(4-trifluoromethylphenyl)-pyrimidin-4-ylmethyl]-amide]",1020
9,"Cc1cccc(S(=O)(=O)N2CCC[C@H]2C(=O)NCc2cc(-c3ccc(C(F)(F)F)cc3)ncn2)c1 [Example 156, 1-(Toluene-3-sulfonyl)-pyrrolidine-2S-carboxylic acid [6-(4-trifluoromethylphenyl)-pyrimidin-4-ylmethyl]-amide]",388
10,"O=C(NCc1cc(-c2ccc(C(F)(F)F)cc2)ncn1)[C@@H]1CCCN1S(=O)(=O)c1cccc(C(F)(F)F)c1 [Example 157, 1-(3-Trifluoromethylbenzenesulfonyl)-pyrrolidine-2S-carboxylic acid [6-(4-trifluoromethylphenyl)-pyrimidin-4-ylmethyl]-amide]",4690
11,"N#Cc1ccc(S(=O)(=O)N2CCC[C@H]2C(=O)NCc2cc(-c3ccc(C(F)(F)F)cc3)ncn2)cc1 [Example 159, 1-(4-Cyanobenzenesulfonyl)-pyrrolidine-2S-carboxylic acid [6-(4-trifluoromethylphenyl)-pyrimidin-4-ylmethyl]-amide]",1090
12,"Cc1ccc(S(=O)(=O)N2CCC[C@H]2C(=O)NCc2cc(-c3ccc(C(F)(F)F)cc3)ncn2)cc1 [Example 161, 1-(Toluene-4-sulfonyl)-pyrrolidine-2S-carboxylic acid [6-(4-trifluoromethylphenyl)-pyrimidin-4-ylmethyl]-amide]",137
13,"O=C(NCc1cc(-c2ccc(C(F)(F)F)cc2)ncn1)[C@@H]1CCCN1S(=O)(=O)c1ccc([N+](=O)[O-])cc1 [Example 163, 1-(4-Nitrobenzenesulfonyl)-pyrrolidine-2S-carboxylic acid [6-(4-trifluoromethylphenyl)-pyrimidin-4-ylmethyl]-amide]",14
14,"O=C(NCc1cc(-c2ccc(C(F)(F)F)cc2)ncn1)[C@@H]1CCCN1S(=O)(=O)c1ccc(Cl)s1 [Example 166, 1-(5-Chlorothiophene-2-sulfonyl)-pyrrolidine-2S-carboxylic acid [6-(4-trifluoromethylphenyl)-pyrimidin-4-ylmethyl]-amide]",14
15,"O=C(NCc1cc(-c2ccc(C(F)(F)F)cc2)ncn1)[C@@H]1CCCN1S(=O)(=O)c1ccco1 [Example 167, 1-(Furan-2-sulfonyl)-pyrrolidine-2S-carboxylic acid [6-(4-trifluoromethylphenyl)-pyrimidin-4-ylmethyl]-amide]",63
16,"O=C(NCc1cccc(-c2ccc(Cl)cc2)c1)[C@@H]1CCCN1S(=O)(=O)c1ccc(F)cc1 [Example 171, 1-(4-Fluorobenzenesulfonyl)-pyrrolidine-2S-carboxylic acid (4′-chlorobiphenyl-3-ylmethyl)-amide]",19
17,"O=C(NCc1cc(-c2ccc(C(F)(F)F)cc2)ncn1)[C@@H]1CCCN1S(=O)(=O)c1ccsc1 [Example 172, 1-(Thiophene-3-sulfonyl)-pyrrolidine-2S-carboxylic acid [6-(4-trifluoromethyl-phenyl)-pyrimidin-4-ylmethyl]-amide]",11
18,"O=C(NCc1cc(-c2ccc(C(F)(F)F)cc2)ncn1)[C@@H]1CCCN1S(=O)(=O)c1ccc(Cl)nc1 [Example 174, 1-(6-Chloropyridine-3-sulfonyl)-pyrrolidine-2S-carboxylic acid [6-(4-trifluoromethylphenyl)-pyrimidin-4-ylmethyl]-amide]",95

# Further compounds by falling IC50, results first:
row,IC50 [nM],Compound
1,1700,"CC(=O)c1ccc(S(=O)(=O)N2CCC[C@H]2C(=O)NCc2cc(-c3ccc(C(F)(F)F)cc3)ncn2)cc1 [Example 162, 1-(4-Acetylbenzenesulfonyl)-pyrrolidine-2S-carboxylic acid [6-(4-trifluoromethylphenyl)-pyrimidin-4-ylmethyl]-amide]"
2,1150,"O=C(NCc1cc(-c2ccc(C(F)(F)F)cc2)ncn1)[C@@H]1CCCN1S(=O)(=O)c1cc(Cl)sc1Cl [Example 173, 1-(2,5-Dichlorothiophene-3-sulfonyl)-pyrrolidine-2S-carboxylic acid [6-(4-trifluoromethylphenyl)-pyrimidin-4-ylmethyl]-amide]"
3,587,"O=C(NCc1cc(-c2ccc(C(F)(F)F)cc2)ncn1)[C@@H]1CCCN1S(=O)(=O)c1ccc(C(F)(F)F)cc1 [Example 158, 1-(4-Trifluoromethylbenzenesulfonyl)-pyrrolidine-2S-carboxylic acid [6-(4-trifluoromethylphenyl)-pyrimidin-4-ylmethyl]-amide]"
4,401,"O=C(NCc1cc(-c2ccc(C(F)(F)F)cc2)ncn1)[C@@H]1CCCN1S(=O)(=O)c1ccccc1F [Example 153, 1-(2-Fluorobenzenesulfonyl)-pyrrolidine-2S-carboxylic acid [6-(4-trifluoromethylphenyl)-pyrimidin-4-ylmethyl]-amide]"
5,92,"O=C(NCc1cc(-c2ccc(C(F)(F)F)cc2)ncn1)[C@@H]1CCCN1S(=O)(=O)c1ccc(Br)cc1 [Example 147, 1-(4-Bromobenzenesulfonyl)-pyrrolidine-2S-carboxylic acid [6-(4-trifluoromethylphenyl)-pyrimidin-4-ylmethyl]-amide]"
6,77,"O=C(NCc1cc(-c2ccc(C(F)(F)F)cc2)ncn1)[C@@H]1CCCN1S(=O)(=O)c1ccccc1 [Example 160, 1-Benzenesulfonylpyrrolidine-2S-carboxylic acid [6-(4-trifluoromethylphenyl)-pyrimidin-4-ylmethyl]-amide]"
7,66,"O=C(NCc1cc(-c2ccc(C(F)(F)F)cc2)ncn1)[C@@H]1CCCN1S(=O)(=O)c1ccc(Cl)cc1 [Example 152, 1-(4-Chlorobenzenesulfonyl)-pyrrolidine-2S-carboxylic acid [6-(4-trifluoromethyl-Phenyl)-pyrimidin-4-ylmethyl]-amide]"
8,51,"O=C(NCc1cc(-c2ccc(C(F)(F)F)cc2)ncn1)[C@@H]1CCCN1S(=O)(=O)c1cc(F)cc(F)c1 [Example 169, 1-(3,5-Difluorobenzenesulfonyl)-pyrrolidine-2S-carboxylic acid [6-(4-trifluoromethylphenyl)-pyrimidin-4-ylmethyl]-amide]"
9,45,"O=C(NCc1cc(-c2ccc(C(F)(F)F)cc2)ncn1)[C@@H]1CCCN1S(=O)(=O)c1ccoc1 [Example 176, 1-(Furan-3-sulfonyl)-pyrrolidine-2S-carboxylic acid [6-(4-trifluoromethylphenyl)-pyrimidin-4-ylmethyl]-amide]"
10,20,"O=C(NCc1cc(-c2ccc(C(F)(F)F)cc2)ncn1)[C@@H]1CCCN1S(=O)(=O)c1cccs1 [Example 170, 1-(Thiophene-2-sulfonyl)-pyrrolidine-2S-carboxylic acid [6-(4-trifluoromethylphenyl)-pyrimidin-4-ylmethyl]-amide]"
11,11,"O=C(NCc1cc(-c2ccc(C(F)(F)F)cc2)ncn1)[C@@H]1CCCN1S(=O)(=O)c1cc(Cl)c(Cl)s1 [Example 165, 1-(4,5-Dichlorothiophene-2-sulfonyl)-pyrrolidine-2S-carboxylic acid [6-(4-trifluoromethylphenyl)-pyrimidin-4-ylmethyl]-amide]"
12,10,"O=C(NCc1cc(-c2ccc(C(F)(F)F)cc2)ccn1)[C@@H]1C=CCN1S(=O)(=O)c1ccc(F)cc1 [Example 143, 1-(4-Fluoro-benzenesulfonyl)-2,5-dihydro-1H-pyrrole-2S-carboxylic acid [4-(4-trifluoromethyl-phenyl)-pyridin-2-ylmethyl]-amide]"
